Like-named read-outs stand apart in the source and are kept apart here.
Key:
ovine COX-1 (oCOX-1) = target: T1, ovine COX-1 (oCOX-1) (Ovis aries, UniProt P05979); experiment: LCMS-based COX-1 enzymatic inhibition assay (PGE2 quantification); assay type: biochemical
T1 construct: purchased Cayman Chemicals (Ann Arbor, Mich.)
T1 sequence (P05979 25-600): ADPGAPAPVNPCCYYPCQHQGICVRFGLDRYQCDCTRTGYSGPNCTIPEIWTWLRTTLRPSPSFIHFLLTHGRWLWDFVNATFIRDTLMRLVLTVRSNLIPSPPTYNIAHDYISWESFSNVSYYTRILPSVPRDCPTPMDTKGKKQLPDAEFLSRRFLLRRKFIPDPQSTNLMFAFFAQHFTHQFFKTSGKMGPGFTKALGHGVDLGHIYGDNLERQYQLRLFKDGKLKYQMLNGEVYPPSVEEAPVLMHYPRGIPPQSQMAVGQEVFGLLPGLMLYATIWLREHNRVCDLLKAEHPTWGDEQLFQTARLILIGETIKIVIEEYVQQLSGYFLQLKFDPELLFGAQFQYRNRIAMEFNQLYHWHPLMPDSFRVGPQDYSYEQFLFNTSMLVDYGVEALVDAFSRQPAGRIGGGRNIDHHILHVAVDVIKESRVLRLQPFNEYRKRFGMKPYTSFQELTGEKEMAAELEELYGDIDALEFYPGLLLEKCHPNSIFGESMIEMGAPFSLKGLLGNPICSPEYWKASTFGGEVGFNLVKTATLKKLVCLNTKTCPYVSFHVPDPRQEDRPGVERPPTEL
Procedure, shortened: (§1)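 Ovine COX-1 (0.1 μg) or human recombinant COX2 (0.2 μg) in 100 mM Tris.HCl pH 8.0 with hematin and epinephrine, preincubated with inhibitor 10 min at 37 °C. Reaction with 5 μM arachidonic acid stopped after 2 min with HCl; PGE2 quantified by LC-MS-MS. IC50 from 12 concentrations in triplicate.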

[1] = target: T2, human recombinant COX2 (hCOX2) (UniProt P35354); experiment: LCMS-based COX2 enzymatic inhibition assay (PGE2 quantification); assay type: biochemical; design: COX2 2 minutes pge2/pge2d4 area ratio Avg; other: 2 minutes; readout pge2/pge2d4 area ratio; average; COX2 2 minutes pge2/pge2d4 area ratio Avg; LLE; average LLE; COX2 2 minutes pge2 area (counts) Avg; readout pge2 area (counts); other: 2 min; "ovine COX2 (oCOX2), human recombinant COX2 (hCOX2)"; details: for IC50: average
T2 sequence (P35354 1-604): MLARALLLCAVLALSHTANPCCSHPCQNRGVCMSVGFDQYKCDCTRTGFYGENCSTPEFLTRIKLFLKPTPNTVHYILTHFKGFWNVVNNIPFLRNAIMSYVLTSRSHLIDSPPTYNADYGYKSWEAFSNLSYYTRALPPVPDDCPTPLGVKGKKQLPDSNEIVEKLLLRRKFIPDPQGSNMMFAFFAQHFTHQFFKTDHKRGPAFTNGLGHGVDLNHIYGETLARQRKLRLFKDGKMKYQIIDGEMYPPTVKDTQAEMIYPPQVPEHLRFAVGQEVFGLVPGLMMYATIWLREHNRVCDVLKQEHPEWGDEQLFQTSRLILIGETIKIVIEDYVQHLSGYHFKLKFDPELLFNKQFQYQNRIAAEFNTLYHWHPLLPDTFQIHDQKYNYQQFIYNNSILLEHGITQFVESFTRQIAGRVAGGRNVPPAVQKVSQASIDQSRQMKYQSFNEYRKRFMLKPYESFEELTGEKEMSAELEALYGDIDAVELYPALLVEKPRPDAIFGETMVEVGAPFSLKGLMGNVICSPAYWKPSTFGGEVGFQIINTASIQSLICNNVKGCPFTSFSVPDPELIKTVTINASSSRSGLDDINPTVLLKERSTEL
Procedure, shortened: as §1

[2] = 10 minutes, pge2/pge2d4 area ratio, head of this section not shown, inferred
[3] = 10 minutes, pge2 area (counts), head of this section not shown, inferred
[4] = 10 minutes, pge2 area (counts), head of this section not shown, inferred, read-out: COX1 10 minutes pge2 area (counts) Avg. IC50
[5] = 2 minutes, readout pge2/pge2d4 area ratio, average LLE
[6] = 2 minutes, readout pge2/pge2d4 area ratio, read-out: COX2 2 minutes pge2/pge2d4 area ratio Avg. IC50
[7] = 2 minutes, readout pge2 area (counts), average LLE
[8] = 2 minutes, readout pge2 area (counts), read-out: COX2 2 minutes pge2 area (counts) Avg. IC50
[9] = 10 minutes, readout pge2/pge2d4 area ratio, average LLE
[10] = 10 minutes, readout pge2/pge2d4 area ratio, average, read-out: COX1 10 minutes pge2/pge2d4 area ratio Avg. IC50
[11] = 10 minutes, readout pge2 area (counts), average LLE
[12] = 10 minutes, readout pge2 area (counts), average, read-out: COX1 10 minutes pge2 area (counts) Avg. IC50

Compound | IC50 (ovine COX-1 (oCOX-1)) | COX1 10 minutes pge2/pge2d4 area ratio Avg. LLE (ovine COX-1 (oCOX-1); [2]) | COX1 10 minutes pge2 area (counts) Avg. LLE (ovine COX-1 (oCOX-1); [3]) | IC50 (ovine COX-1 (oCOX-1); [4]) | COX2 2 minutes pge2/pge2d4 area ratio Avg. LLE [1, 5] | IC50 [1, 6] | COX2 2 minutes pge2 area (counts) Avg. LLE [1, 7] | IC50 [1, 8] | COX1 10 minutes pge2/pge2d4 area ratio Avg. LLE (ovine COX-1 (oCOX-1); [9]) | IC50 (ovine COX-1 (oCOX-1); [10]) | COX1 10 minutes pge2 area (counts) Avg. LLE (ovine COX-1 (oCOX-1); [11]) | IC50 (ovine COX-1 (oCOX-1); [12]) | COX2 10 minutes pge2 area (counts) Avg. LLE [1, 11] | IC50 ([1]; 10 minutes, readout pge2 area (counts), read-out: COX2 10 minutes pge2 area (counts) Avg. IC50)
CS(=O)(=O)c1ccc(-c2cncc(/C=C\c3cccs3)n2)cc1 [Compound 65] | 52 µM | 1.544 | 1.612 | 38 µM | 4.704 | 37 nM | 4.681 | 39 nM | – | – | – | – | – | –
Cc1csc(COc2cncc(-c3ccc(S(C)(=O)=O)cc3)n2)c1 [Compound 10] | – | – | – | – | 5.4246 | 8.12 nM | 5.349 | 9.54 nM | 2.513 | 5.85 µM | 2.529 | 5.64 µM | – | –
CS(=O)(=O)c1ccc(-c2ccc3ccn(Cc4cccs4)c3n2)cc1 [Compound 31] | – | – | – | – | 3.218 | 15.2 nM | 3.116 | 18.5 nM | 1.013 | 2.22 µM | 0.929 | 2.71 µM | – | –
CS(=O)(=O)c1ccc(-c2nc(NCc3cccs3)cnc2C(F)(F)F)cc1 [Compound 76] | – | 1.461 | – | – | 4.278 | 48.6 nM | 4.291 | 48.5 nM | – | 31.6 µM | – | – | – | –
CS(=O)(=O)c1ccc(-c2ccc3cnn(Cc4cccs4)c3n2)cc1 [Compound 63] | – | 2.0906 | 2.128 | 1.83 µM | 3.897 | 35.1 nM | 3.961 | 27.1 nM | – | 1.99 µM | – | – | – | –
COc1cc(-c2ccc(S(C)(=O)=O)cc2)cc(NCc2cccs2)n1 [Compound 54] | – | – | – | – | 3.727 | 25.5 nM | 3.7767 | 23.8 nM | 0.5171 | 39.2 µM | 0.394 | 52 µM | 4.182 | 9.43 nM
CS(=O)(=O)c1ccc(-c2cc3ccoc3c(NCc3cccs3)n2)cc1 [Compound 67] | – | 0.3787 | 0.343 | 21.2 µM | 3.0886 | 38.9 nM | 3.016 | 45.2 nM | – | 19.6 µM | – | – | – | –
CS(=O)(=O)c1ccc(-c2ncc3ccn(Cc4cccs4)c3n2)cc1 [Compound 71] | – | 0.04679 | – | – | 3.165 | 41.2 nM | 3.167 | 41.6 nM | – | 49.3 µM | – | – | – | –
CS(=O)(=O)c1ccc(-c2cccc(OCc3cccs3)n2)nc1 [Compound 37] | – | – | – | – | 5.44 | 18.1 nM | 5.694 | 14.3 nM | 2.056 | 39.2 µM | 2.13 | 33.1 µM | – | –
CS(=O)(=O)c1ccc(-n2ccc3ccc(Nc4ccccc4)nc32)cc1 [Compound 72] | – | 0.2541 | 0.02014 | 30.2 µM | 2.94 | 41.4 nM | 2.995 | 34.2 nM | – | 17.6 µM | – | – | – | –
CS(=O)(=O)c1ccc(-c2cccc(NCc3ccns3)n2)cc1 [Compound 87] | – | 1.97 | 1.899 | 50.2 µM | 4.854 | 61.9 nM | 4.881 | 56.5 nM | – | 42.6 µM | – | – | – | –
